Test results as given in patent publication US12370235B2, “Synthetic, non-natural antimicrobial peptides inspired by Staphylococcus auricularis delta toxin” (University of Saskatchewan, priority 2021, dated 2025).
Ends that are not written are not given here.

Assays:
[1] = system: Kodamae ohmeri AR 396; assay: MIC, YPD broth, CDC and FDA AR Candida isolate panel; assay type: cell-based; details: Table 9 below the line: only 200 or 100 μg/mL tested; values reported as 100 are ≤100 μg/mL
How it was run: (§1)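 Medium: 10 g/L yeast extract, 20 g/L peptone, 20 g/L dextrose. Inoculum OD […]; peptides 95% purity, 2-fold series; overnight 37° C, standing.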

[2] = system: Candida haemulonii AR 393; assay: as above; assay type: cell-based; details: Table 9 below the line: only 200 or 100 μg/mL tested; values reported as 100 are ≤100 μg/mL
How it was run: as §1

[3] = system: Saccharomyces cerevisiae AR 399; assay: as above; assay type: cell-based; details: Table 9 below the line: only 200 or 100 μg/mL tested; values reported as 100 are ≤100 μg/mL
How it was run: as §1

[4] = system: Candida duobushaemulonii AR 391; assay: as above; assay type: cell-based; details: Table 9 below the line: only 200 or 100 μg/mL tested; values reported as 100 are ≤100 μg/mL
How it was run: as §1

[5] = system: Candida lusitaniae AR 398; assay: as above; assay type: cell-based; details: Table 9 below the line: only 200 or 100 μg/mL tested; values reported as 100 are ≤100 μg/mL
How it was run: as §1

[6] = system: Candida duobushaemulonii AR 392; assay: as above; assay type: cell-based; details: Table 9 below the line: only 200 or 100 μg/mL tested; values reported as 100 are ≤100 μg/mL
How it was run: as §1

[7] = system: Candida duobushaemulonii AR 394; assay: as above; assay type: cell-based; details: Table 9 below the line: only 200 or 100 μg/mL tested; values reported as 100 are ≤100 μg/mL
How it was run: as §1

[8] = system: Saccharomyces cerevisiae AR 400; assay: as above; assay type: cell-based; details: Table 9 below the line: only 200 or 100 μg/mL tested; values reported as 100 are ≤100 μg/mL
How it was run: as §1

[9] = system: Candida krusei AR 397; assay: as above; assay type: cell-based; details: Table 9 below the line: only 200 or 100 μg/mL tested; values reported as 100 are ≤100 μg/mL
How it was run: as §1

[10] = system: Mannheimia haemolytica ATCC 33393; assay: MIC, broth dilution; assay type: cell-based; details: Table 11; highest concentration 25 μg/mL
How it was run: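 Peptides (95% purity) in 2-fold dilution series were mixed with M. haemolytica diluted to OD 6×10^−4 in cation-adjusted Mueller Hinton broth and incubated standing overnight at 37 °C. MIC was the lowest concentration with no visible growth.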

[11] = system: S. aureus ATCC BAA-42 (MRSA SCCmec type VI); assay: MIC, broth dilution; assay type: cell-based, Staphylococcus aureus; details: Table 5; STIP3 variants, highest concentration 100 μg/mL
How it was run: (§2)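 Peptides (95% purity) were serially diluted 2-fold and mixed with bacteria diluted to OD 6×10^−4 in cation-adjusted Mueller Hinton broth. Standing cultures were incubated overnight at 37° C. MIC was the lowest peptide concentration with no observed growth.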

[12] = system: S. aureus ATCC BAA-1683 (MRSA SCCmec type IV); assay: MIC, broth dilution; assay type: cell-based, Staphylococcus aureus; details: Table 5; STIP3 variants, highest concentration 100 μg/mL
How it was run: as §2

[13] = system: S. aureus ATCC BAA-41 (MRSA SCCmec type II); assay: MIC, broth dilution; assay type: cell-based, Staphylococcus aureus; details: Table 5; STIP3 variants, highest concentration 100 μg/mL
How it was run: as §2

[14] = system: S. aureus ATCC BAA-44 (MRSA SCCmec type I); assay: MIC, broth dilution; assay type: cell-based, Staphylococcus aureus; details: Table 5; STIP3 variants, highest concentration 100 μg/mL
How it was run: as §2

[15] = system: S. aureus ATCC 33592 (MRSA SCCmec type III); assay: MIC, broth dilution; assay type: cell-based, Staphylococcus aureus; details: Table 5; STIP3 variants, highest concentration 100 μg/mL
How it was run: as §2

[16] = system: S. aureus ATCC BAA-2313 (MRSA SCCmec type XI); assay: MIC, broth dilution; assay type: cell-based, Staphylococcus aureus; details: Table 5; STIP3 variants, highest concentration 100 μg/mL
How it was run: as §2

[17] = system: S. aureus ATCC 29213; assay: MIC, broth dilution; assay type: cell-based, Staphylococcus aureus; details: Table 5; STIP3 variants, highest concentration 100 μg/mL
How it was run: as §2

[18] = system: S. aureus ATCC BAA-2094 (MRSA SCCmec type V); assay: MIC, broth dilution; assay type: cell-based, Staphylococcus aureus; details: Table 5; STIP3 variants, highest concentration 100 μg/mL
How it was run: as §2

[19] = system: C. albicans Y537; assay: MIC, YPD broth; assay type: cell-based, Candida albicans; details: Table 8
[20] = system: C. albicans MYA-2876; assay: MIC, YPD broth; assay type: cell-based, Candida albicans; details: Table 8
How it was run: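 Minimum inhibitory concentrations against Candida albicans were determined in YPD broth (10 g/L yeast extract, 20 g/L peptone, 20 g/L dextrose) using peptides of 95% purity. A 180 μl volume of diluted yeast was combined with 20 μl of peptide in a 2-fold dilution series in 96-well plates, with sterile water as control, then incubated standing overnight at 37° C.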

[21] = system: Candida haemulonii AR 395; assay: MIC, YPD broth, CDC and FDA AR Candida isolate panel; assay type: cell-based; details: Table 9 below the line: only 200 or 100 μg/mL tested; values reported as 100 are ≤100 μg/mL
How it was run: as §1

Row | Substance | MIC (μg/mL) Kodamae ohmeri AR 396 [1] | MIC (μg/mL) Candida haemulonii AR 393 [2] | MIC (μg/mL) Saccharomyces cerevisiae AR 399 [3] | MIC (μg/mL) Candida duobushaemulonii AR 391 [4] | MIC (μg/mL) Candida lusitaniae AR 398 [5] | MIC (μg/mL) Candida duobushaemulonii AR 392 [6] | MIC (μg/mL) Candida duobushaemulonii AR 394 [7] | MIC (μg/mL) Saccharomyces cerevisiae AR 400 [8] | MIC (μg/mL) Candida krusei AR 397 [9] | MIC (μg/mL) M. haemolytica [10] | MIC S. aureus ATCC BAA 42 (VI) [11] | MIC S. aureus ATCC BAA 1683 (IV) [12] | MIC S. aureus ATCC BAA 41 (II) [13] | MIC S. aureus ATCC BAA 44 (I) [14] | MIC S. aureus ATCC 33592 (III) [15] | MIC S. aureus ATCC BAA 2313 (XI) [16] | MIC S. aureus ATCC 29213 [17] | MIC S. aureus ATCC BAA 2094 (V) [18] | MIC C. albicans Y537 [19] | MIC C. albicans MYA-2876 [20] | also measured
1 | TVKALVKWILKTVAKFW-NH2 [STIP3-31, TVKALVKWILKTVAKFW-NH2] | > (values below the line were determined using two concentrations of peptide 200 or 100 μg/mL) | > (values below the line were determined using two concentrations of peptide 200 or 100 μg/mL) | > (values below the line were determined using two concentrations of peptide 200 or 100 μg/mL) | > (values below the line were determined using two concentrations of peptide 200 or 100 μg/mL) | > (values below the line were determined using two concentrations of peptide 200 or 100 μg/mL) | > (values below the line were determined using two concentrations of peptide 200 or 100 μg/mL) | > (values below the line were determined using two concentrations of peptide 200 or 100 μg/mL) | > (values below the line were determined using two concentrations of peptide 200 or 100 μg/mL) | > (values below the line were determined using two concentrations of peptide 200 or 100 μg/mL) | 6.25 µg/mL | 50 µg/mL | 25 µg/mL | 25 µg/mL | 25 µg/mL | 25 µg/mL | 25 µg/mL | 25 µg/mL | 25 µg/mL | > (> symbol indicates that no inhibition was observed at the highest concentration of peptide tested: 100 μg/mL) | > (> symbol indicates that no inhibition was observed at the highest concentration of peptide tested: 100 μg/mL) | 
2 | TVGGLVKWILDTVKKFA-NH2 [STIP3-27, TVGGLVKWILDTVKKFA-NH2] | ≤ 100 µg/mL | > (values below the line were determined using two concentrations of peptide 200 or 100 μg/mL) | ≤ 100 µg/mL | > (values below the line were determined using two concentrations of peptide 200 or 100 μg/mL) | ≤ 100 µg/mL | > (values below the line were determined using two concentrations of peptide 200 or 100 μg/mL) | > (values below the line were determined using two concentrations of peptide 200 or 100 μg/mL) | ≤ 100 µg/mL | ≤ 100 µg/mL | 25 µg/mL | 25 µg/mL | 25 µg/mL | 25 µg/mL | 25 µg/mL | 50 µg/mL | 50 µg/mL | 50 µg/mL | 25 µg/mL | 50 µg/mL | 25 µg/mL | MIC (μg/mL) Candida haemulonii AR 395 [21]: > (values below the line were determined using two concentrations of peptide 200 or 100 μg/mL)
